Results published in patent US8357709B2, “2,4-disubstituted pyrrolidine orexin receptor antagonists” (Merck Sharp & Dohme Corp., priority 2008, dated 2013).

Legend:
[1] = target: T1, orexin-1 receptor (OX1R) (UniProt O43613); assay: radioligand binding assay, membranes from CHO cells expressing OX1 receptor; conditions: CHO cell membranes
T1 sequence (O43613 1-425): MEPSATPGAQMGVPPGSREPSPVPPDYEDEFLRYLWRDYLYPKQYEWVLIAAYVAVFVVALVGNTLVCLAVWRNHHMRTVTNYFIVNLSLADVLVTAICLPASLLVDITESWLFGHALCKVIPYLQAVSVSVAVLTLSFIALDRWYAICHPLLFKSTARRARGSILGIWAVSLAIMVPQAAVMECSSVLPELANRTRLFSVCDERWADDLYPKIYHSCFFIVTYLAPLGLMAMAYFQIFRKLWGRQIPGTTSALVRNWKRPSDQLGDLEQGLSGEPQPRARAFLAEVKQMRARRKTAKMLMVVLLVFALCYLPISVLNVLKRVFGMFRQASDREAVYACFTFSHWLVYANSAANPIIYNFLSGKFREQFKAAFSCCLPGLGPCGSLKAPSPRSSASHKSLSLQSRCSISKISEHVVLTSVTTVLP
Description: (§1) The utility of the compounds in accordance with the present invention as orexin receptor OX1R and/or OX2R antagonists may be readily determined without undue experimentation by methodology well known in the art, including the “FLIPR Ca^2+ Flux Assay” (Okumura et al., Biochem. Biophys. Res. Comm. 280:976-981, 2001). In a typical experiment the OX1 and OX2 receptor antagonistic activity of the compounds of the present invention was determined in accordance with the following experimental method. […] Within the Fluorescent Imaging Plate Reader (FLIPR, Molecular Devices), test compounds are added to the plate in a volume of 25 ul, incubated for 5 min and finally 25 ul of agonist is added. Fluorescence is measured for each well at 1 second intervals for 5 minutes and the height of each fluorescence peak is compared to the height of the fluorescence peak induced by 70 pM Ala-6,12 orexin-A with buffer in place of antagonist. […] Alternatively, compound potency can be assessed by a radioligand binding assay (described in Bergman et. al. Bioorg. Med. Chem. Lett. 2008, 18, 1425-1430) in which the inhibition constant (Ki) is determined in membranes prepared from CHO cells expressing either the orexin-1 (OX1) or orexin-2 (OX2) receptor. The intrinsic orexin receptor antagonist activity of a compound which may be used in the present invention may be determined by these assays.

[2] = target: T2, orexin-2 receptor (OX2R) (Homo sapiens, UniProt O43614); assay: radioligand binding assay, membranes from CHO cells expressing OX2 receptor; conditions: CHO cell membranes
T2 construct: expressed in transfected cells; host or cells: CHO cells (membrane preparation)
T2 sequence (O43614 1-444): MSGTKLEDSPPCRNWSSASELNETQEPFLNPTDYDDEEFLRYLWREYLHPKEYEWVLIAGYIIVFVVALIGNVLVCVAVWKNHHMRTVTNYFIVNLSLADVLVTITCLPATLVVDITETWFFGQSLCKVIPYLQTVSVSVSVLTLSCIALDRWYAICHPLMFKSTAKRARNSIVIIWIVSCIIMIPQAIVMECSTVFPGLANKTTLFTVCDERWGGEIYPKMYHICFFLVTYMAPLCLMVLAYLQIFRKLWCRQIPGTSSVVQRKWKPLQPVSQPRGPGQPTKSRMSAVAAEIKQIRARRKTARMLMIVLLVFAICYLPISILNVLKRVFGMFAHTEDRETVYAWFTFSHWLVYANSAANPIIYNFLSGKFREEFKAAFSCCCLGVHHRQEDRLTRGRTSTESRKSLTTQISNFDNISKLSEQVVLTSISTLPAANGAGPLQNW
Description: as §1

Cc1ccc(-n2nccn2)c(C(=O)N2CC(COc3ccc(F)cn3)CC2C)c1 (racemic) [A-7, 5-fluoro-2-({5-methyl-1-[5-methyl-2-(2H-1,2,3-triazol-2-yl)benzoyl]pyrrolidin-3-yl}methoxy)pyridine]
Ki [1]: 230 nM
Ki [2]: 10 nM

Cc1ccc(-n2nccn2)c(C(=O)N2CC(COc3ccc(F)cn3)CC2C)c1 (single isomer, unassigned) [A-8]
Ki [1]: 37 nM
Ki [2]: 5.1 nM
